Assay: Proto-desulfonation studies (heat treatment in sulfuric acid)
Type: physicochemical
Settings: 1 M solution, 24 hours in 1M sulfuric acid at 60 degrees Celsius
Procedure: Proto-Desulfonation Studies.
We determined that the molecule was stable against proto-desulfonation, by heat treatment of 1 M solution of DHDMDS 24 hours in 1M sulfuric acid at 60 degrees Celsius. […] If decomposition occurred there would be the formation of a precipitate of an insoluble de-sulfonated material.

Structure (SMILES)	stability against proto-desulfonation (decomposition products observed)
Cc1cc(O)c(S(=O)(=O)O)c(C)c1O [DHDMBS, 2,5-dihydroxy-4,6-dimethylbenzene-1-sulfonic acid]	decomposes readily
Cc1c(O)c(C)c(S(=O)(=O)O)c(O)c1S(=O)(=O)O [DHDMDS, 2,5-dihydroxy-4,6-dimethylbenzene-1,3-disulfonic acid]	no decomposition products
